Test results as given in ChEMBL document CHEMBL5653615 (J Biol Chem, 2013).

Key:
[1] = biological target: Tyrosine-protein kinase Lyn (Homo sapiens) (UniProt P07948); test: Inhibition of human LYN at 18.6 nM by HotSpot assay relative to control
[2] = biological target: Serine/threonine-protein kinase pim-3 (Homo sapiens) (UniProt Q86V86); test: Inhibition of human PIM3 at 18.6 nM by HotSpot assay relative to control
[3] = biological target: T1, G protein-coupled receptor kinase 3 (Homo sapiens) (UniProt P35626); test: Inhibition of human GRK3 at 1.82 nM by HotSpot assay relative to control
T1 sequence (whole entry): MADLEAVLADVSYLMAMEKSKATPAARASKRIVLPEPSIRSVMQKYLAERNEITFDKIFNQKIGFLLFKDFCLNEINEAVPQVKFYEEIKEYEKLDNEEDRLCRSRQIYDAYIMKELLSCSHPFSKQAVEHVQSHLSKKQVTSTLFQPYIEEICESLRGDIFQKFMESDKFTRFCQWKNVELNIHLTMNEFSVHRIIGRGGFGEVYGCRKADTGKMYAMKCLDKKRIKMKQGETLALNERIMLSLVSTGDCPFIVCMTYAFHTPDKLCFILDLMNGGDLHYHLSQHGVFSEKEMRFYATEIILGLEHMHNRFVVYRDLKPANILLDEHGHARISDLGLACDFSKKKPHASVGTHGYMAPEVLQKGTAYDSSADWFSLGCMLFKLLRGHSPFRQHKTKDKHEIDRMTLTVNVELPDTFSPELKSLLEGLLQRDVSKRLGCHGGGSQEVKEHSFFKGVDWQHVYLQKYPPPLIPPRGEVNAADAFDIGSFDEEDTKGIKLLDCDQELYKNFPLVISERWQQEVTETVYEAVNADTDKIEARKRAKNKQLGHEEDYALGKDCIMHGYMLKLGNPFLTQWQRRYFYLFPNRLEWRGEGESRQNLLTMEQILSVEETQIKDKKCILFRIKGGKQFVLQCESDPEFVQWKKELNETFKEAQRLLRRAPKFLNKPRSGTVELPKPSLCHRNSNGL

[4] = biological target: Serine/threonine-protein kinase PAK 1 (Homo sapiens) (UniProt Q13153); test: Inhibition of human PAK1 at 1.82 nM by HotSpot assay relative to control
[5] = biological target: T2, Serine/threonine-protein kinase ULK1 (Homo sapiens) (UniProt O75385); test: Inhibition of human ULK1 at 1.82 nM by HotSpot assay relative to control
T2 sequence (whole entry): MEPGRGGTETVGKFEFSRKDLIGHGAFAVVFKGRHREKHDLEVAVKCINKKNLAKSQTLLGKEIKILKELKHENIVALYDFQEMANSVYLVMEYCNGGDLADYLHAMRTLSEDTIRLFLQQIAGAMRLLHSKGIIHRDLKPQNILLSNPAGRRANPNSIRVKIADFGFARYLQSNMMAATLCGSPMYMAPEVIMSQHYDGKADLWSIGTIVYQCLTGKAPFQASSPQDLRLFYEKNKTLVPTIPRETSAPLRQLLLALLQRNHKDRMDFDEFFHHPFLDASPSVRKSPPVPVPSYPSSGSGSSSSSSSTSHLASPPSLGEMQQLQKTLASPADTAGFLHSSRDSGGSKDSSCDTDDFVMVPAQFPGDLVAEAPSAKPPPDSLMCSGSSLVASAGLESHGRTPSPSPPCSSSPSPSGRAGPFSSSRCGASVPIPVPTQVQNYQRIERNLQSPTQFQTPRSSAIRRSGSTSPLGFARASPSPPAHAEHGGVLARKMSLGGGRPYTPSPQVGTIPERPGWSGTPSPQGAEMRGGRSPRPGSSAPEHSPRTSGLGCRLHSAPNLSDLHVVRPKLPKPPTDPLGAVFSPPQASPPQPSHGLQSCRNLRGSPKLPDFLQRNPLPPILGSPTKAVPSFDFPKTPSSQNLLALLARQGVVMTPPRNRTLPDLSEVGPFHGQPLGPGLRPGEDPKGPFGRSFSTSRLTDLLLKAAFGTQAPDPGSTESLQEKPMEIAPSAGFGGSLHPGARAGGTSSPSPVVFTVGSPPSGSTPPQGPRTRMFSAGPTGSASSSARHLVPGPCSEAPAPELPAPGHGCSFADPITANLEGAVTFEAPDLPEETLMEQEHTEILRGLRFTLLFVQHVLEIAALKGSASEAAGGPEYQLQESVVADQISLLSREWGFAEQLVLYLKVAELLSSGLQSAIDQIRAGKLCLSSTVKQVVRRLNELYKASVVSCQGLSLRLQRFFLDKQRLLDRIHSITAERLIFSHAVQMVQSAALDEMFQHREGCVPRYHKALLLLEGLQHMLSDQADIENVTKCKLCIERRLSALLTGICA

[6] = biological target: Serine/threonine-protein kinase 25 (Homo sapiens) (UniProt O00506); test: Inhibition of human YSK1 at 1.82 nM by HotSpot assay relative to control
[7] = biological target: Homeodomain-interacting protein kinase 2 (Homo sapiens) (UniProt Q9H2X6); test: Inhibition of human HIPK2 at 1.82 nM by HotSpot assay relative to control
[8] = biological target: T3, Cytoplasmic tyrosine-protein kinase BMX (Homo sapiens) (UniProt P51813); test: Inhibition of human BMX at 1.82 nM by HotSpot assay relative to control
T3 sequence (whole entry): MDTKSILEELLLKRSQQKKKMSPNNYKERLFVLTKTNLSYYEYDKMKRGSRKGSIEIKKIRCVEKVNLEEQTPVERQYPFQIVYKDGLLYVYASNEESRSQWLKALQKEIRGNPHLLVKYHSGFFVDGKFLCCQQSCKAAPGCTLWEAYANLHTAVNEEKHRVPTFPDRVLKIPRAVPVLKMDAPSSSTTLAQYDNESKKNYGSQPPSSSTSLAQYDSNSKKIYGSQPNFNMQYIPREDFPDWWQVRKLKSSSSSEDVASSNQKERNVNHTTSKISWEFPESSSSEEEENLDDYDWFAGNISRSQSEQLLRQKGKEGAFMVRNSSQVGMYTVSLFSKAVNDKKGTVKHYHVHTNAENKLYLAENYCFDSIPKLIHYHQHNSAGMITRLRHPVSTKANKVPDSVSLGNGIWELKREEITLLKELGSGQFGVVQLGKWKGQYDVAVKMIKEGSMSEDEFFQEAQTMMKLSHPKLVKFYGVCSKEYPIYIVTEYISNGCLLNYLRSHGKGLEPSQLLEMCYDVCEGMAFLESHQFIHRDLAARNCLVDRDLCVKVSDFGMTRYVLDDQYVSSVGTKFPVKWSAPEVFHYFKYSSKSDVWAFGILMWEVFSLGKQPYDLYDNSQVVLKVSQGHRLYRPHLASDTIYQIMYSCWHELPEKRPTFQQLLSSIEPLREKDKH

Sequence of Serine/threonine-protein kinase 25 (Homo sapiens) (O00506 whole entry, looked up): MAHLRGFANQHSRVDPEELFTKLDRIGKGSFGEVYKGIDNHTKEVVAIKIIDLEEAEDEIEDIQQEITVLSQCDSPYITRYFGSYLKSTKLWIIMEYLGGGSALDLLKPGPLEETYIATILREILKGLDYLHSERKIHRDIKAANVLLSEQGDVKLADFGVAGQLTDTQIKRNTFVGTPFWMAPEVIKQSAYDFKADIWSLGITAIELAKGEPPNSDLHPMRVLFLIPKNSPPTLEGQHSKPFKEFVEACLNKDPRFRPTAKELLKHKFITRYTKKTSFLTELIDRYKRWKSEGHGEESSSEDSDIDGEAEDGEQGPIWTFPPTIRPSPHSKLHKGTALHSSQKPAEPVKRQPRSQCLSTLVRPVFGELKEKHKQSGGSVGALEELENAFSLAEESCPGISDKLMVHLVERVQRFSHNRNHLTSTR
Sequence of Homeodomain-interacting protein kinase 2 (Homo sapiens) (Q9H2X6 whole entry, looked up): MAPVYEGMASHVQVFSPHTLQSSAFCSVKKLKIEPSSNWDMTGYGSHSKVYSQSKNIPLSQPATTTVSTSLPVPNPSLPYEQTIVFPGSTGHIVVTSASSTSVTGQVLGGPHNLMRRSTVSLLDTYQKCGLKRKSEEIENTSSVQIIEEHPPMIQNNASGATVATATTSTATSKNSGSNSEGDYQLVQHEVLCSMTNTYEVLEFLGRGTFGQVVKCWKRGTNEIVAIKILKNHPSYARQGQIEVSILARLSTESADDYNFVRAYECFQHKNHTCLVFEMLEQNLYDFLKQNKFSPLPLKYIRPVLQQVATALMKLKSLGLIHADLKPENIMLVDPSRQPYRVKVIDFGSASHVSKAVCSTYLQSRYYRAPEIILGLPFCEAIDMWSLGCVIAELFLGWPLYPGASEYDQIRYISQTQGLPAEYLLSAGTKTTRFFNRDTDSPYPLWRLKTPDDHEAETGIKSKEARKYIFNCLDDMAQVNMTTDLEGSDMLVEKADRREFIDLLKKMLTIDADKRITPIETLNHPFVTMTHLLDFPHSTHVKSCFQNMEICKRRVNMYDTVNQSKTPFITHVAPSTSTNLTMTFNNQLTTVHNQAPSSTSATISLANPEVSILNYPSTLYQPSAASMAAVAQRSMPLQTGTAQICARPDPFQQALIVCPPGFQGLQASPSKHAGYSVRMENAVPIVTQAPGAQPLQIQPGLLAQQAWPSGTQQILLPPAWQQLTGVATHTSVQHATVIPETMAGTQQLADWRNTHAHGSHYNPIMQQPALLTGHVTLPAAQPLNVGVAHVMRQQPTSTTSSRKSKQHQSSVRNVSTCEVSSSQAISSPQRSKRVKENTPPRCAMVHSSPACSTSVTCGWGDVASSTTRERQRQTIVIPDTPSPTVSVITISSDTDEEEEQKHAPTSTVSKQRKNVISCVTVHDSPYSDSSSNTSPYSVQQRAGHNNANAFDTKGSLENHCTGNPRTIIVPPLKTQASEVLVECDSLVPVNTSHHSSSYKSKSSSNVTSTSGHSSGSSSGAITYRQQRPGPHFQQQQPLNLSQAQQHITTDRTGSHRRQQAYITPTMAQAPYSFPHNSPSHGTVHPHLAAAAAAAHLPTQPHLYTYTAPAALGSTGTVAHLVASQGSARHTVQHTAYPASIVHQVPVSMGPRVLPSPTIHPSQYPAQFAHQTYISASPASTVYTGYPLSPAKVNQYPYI
Sequence of Tyrosine-protein kinase Lyn (Homo sapiens) (P07948 2-512 limits assumed): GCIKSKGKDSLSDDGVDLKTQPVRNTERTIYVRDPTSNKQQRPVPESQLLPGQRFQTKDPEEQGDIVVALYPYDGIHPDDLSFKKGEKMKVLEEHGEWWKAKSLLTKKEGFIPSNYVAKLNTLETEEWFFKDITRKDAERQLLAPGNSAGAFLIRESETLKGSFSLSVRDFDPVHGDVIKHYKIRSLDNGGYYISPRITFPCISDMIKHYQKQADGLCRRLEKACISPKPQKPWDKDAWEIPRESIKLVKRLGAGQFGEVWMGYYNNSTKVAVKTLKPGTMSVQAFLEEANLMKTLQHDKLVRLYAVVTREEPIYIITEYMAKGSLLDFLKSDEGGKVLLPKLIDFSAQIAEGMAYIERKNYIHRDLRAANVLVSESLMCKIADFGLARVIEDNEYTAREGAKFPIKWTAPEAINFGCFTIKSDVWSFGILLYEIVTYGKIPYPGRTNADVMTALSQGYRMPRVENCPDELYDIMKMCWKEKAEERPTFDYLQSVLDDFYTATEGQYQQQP
Sequence of Serine/threonine-protein kinase PAK 1 (Homo sapiens) (Q13153 whole entry): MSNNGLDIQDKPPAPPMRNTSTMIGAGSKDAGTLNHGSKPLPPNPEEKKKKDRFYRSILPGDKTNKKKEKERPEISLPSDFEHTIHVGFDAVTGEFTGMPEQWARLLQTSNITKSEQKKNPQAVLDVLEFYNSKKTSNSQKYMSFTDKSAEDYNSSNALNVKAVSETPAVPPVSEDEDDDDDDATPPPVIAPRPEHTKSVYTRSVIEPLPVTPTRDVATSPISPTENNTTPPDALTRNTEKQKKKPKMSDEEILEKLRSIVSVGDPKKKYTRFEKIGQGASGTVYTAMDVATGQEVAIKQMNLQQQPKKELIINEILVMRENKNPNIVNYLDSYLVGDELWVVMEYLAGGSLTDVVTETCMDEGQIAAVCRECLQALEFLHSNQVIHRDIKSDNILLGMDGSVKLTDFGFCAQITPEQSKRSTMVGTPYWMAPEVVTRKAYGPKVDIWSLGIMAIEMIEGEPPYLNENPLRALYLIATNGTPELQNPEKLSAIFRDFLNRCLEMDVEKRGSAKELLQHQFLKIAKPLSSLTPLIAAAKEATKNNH

Structure (SMILES)	inhibition [1] [%]	inhibition [2] [%]	inhibition [3] [%]	inhibition [4] [%]	inhibition [5] [%]	inhibition [6] [%]	inhibition [7] [%]	inhibition [8] [%]
C[C@]1(O)C[C@@H](c2nc(-c3ccc4ccc(-c5ccccc5)nc4c3)c3c(N)nccn32)C1	-0.99	20.9						
C[C@@]1(C(=O)Nc2ccc(F)nc2)CCCN1c1nc(Nc2cc(C3CC3)n[nH]2)c2cccn2n1			-5.67	1.83	0.76	5.25	3.96	-1.37
